Data as given in patent US11395833B2, “Process for the preparation and purification of the sodium salt of hyaluronic acid” (priority 2016, dated 2022).

Assay: LAL test for bacterial endotoxins (Ph. Eur. 5.0, 2.6.14)
Conditions: analysis of the product according to Ph. Eur. 5.0
Procedure: LAL Test: the basis of the LAL test is the capacity of the amebocytes extracted from blood of Limulus polyphemus to gel in the presence of bacterial endotoxins from Gram-negatives, primarily responsible for the pyrogen effect. This test is carried out according to Ph. Eur. 5.0, 2.6.14.

Substance	Bacterial endotoxins (LAL test)
sodium salt of HA [Example 1]	0.012 EU/mg
sodium salt of HA [Example 3]	0.0075 EU/mg
sodium salt of HA [Example 2]	0.012 EU/mg
